The values below come from patent US10526634B2, “Cell line for screening influenza virus polymerase assembly inhibitor and construction method thereof” (Suzhou Institute of Systems Medicine, priority 2015, dated 2020).

This assay deals with PA/PB1 HEK293T (Teton) cell line. As to the kind of experiment: Dox-controlled inducible PA/PB1 expression, luciferase activity and Western blotting. The class given is cell-based. The conditions noted are these: Dox 300 ng/mL, 16 h, PA/PB1 HEK293T (Teton) cells. The procedure: To detect the influence of Doxycycline (Dox) (purchased from Sigma) on controlled inducible PA/PB1 expression, 100,000 PA/PB1 HEK293T (Teton) cells and 300 μL DMEM complete medium were plated in each well of a 48 well plate. After 24 h, Dox was added at concentrations of 0, 10, 30, 100, 300 ng/mL respectively. After 16 h, culture medium in supernatant was removed, and lysis was performed on ice for 10 min using 80 μL renilla luciferase lysate (purchased from Promega, E2820), lysate was mixed by pipetting, 50 μL cell lysate was transferred into a plate for luciferase detection (purchased from PE), 20 μL renilla luciferase substrate (purchased from Promega, E2820) was added into each well, and luciferase activity was detected by a microplate reader (purchased from Bio-Tek, SynergyH1). The remaining 30 μL lysate was used for immune blotting (Western Blotting), the primary antibody used was Anti-Gluc (purchased from NEB), the secondary antibody used was HRP-conjugated Donkey Anti-Rabbit (purchased from Jackson), and expression of PA/PB1 with Gluc fusion tag could be detected by a scanner (purchased from Bio-rad).
When Dox was not added into the PA/PB1 HEK293T (Teton) cell line, luciferase activity of PA/PB1 interaction was the background. […] When Dox was added at a concentration of 300 ng/mL, the difference between its signal value and the background signal value was up to 200 times.

Regarding `C[C@H]1c2cccc(O)c2C(=O)C2=C(O)[C@]3(O)C(=O)C(C(N)=O)=C(O)[C@@H](N(C)C)[C@@H]3[C@@H](O)[C@@H]21` [Dox, Doxycycline], the “difference between signal value and background signal value (luciferase activity of PA/PB1 interaction)” value was “up to 200 times”.
